Reference: ChEMBL document CHEMBL1201862, “PubChem BioAssay data set” (2004)
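Each compound was tested at five concentrations against cells in 96-well plates for 48 hours. GI50 = concentration required for 50% inhibition of growth.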 Calls of active or inactive are those of the source. Cut-off read from the data, not from the text of the source: active = GI50 up to about 1.1 µM and inactive = higher.

Legend:
Assay in all cases: NCI anticancer screen, dose series, 48 h
HOP-62 = system: HOP-62
KM12 = system: KM12
SK-OV-3 = system: SK-OV-3
U-251 = system: U-251
OVCAR-8 = system: OVCAR-8
HOP-92 = system: HOP-92
COLO 205 = system: COLO 205
HCT-15 = system: HCT-15
SW-620 = system: SW-620
HL-60 = system: HL-60
HCC 2998 = system: HCC 2998
OVCAR-3 = system: OVCAR-3
SF-539 = system: SF-539
NCI-H23 = system: NCI-H23
SF-268 = system: SF-268
LOX IMVI = system: LOX IMVI
EKVX = system: EKVX
SK-MEL-2 = system: SK-MEL-2
OVCAR-5 = system: OVCAR-5
ACHN = system: ACHN

## Nc1ccn(C2OC(CO)C(O)C2O)c(=O)c1 (stereo not drawn)
HOP-62
  GI50: 136 µM (inactive)
KM12
  GI50: > 625 µM (inactive)
SK-OV-3
  GI50: > 625 µM (inactive)
U-251
  GI50: > 625 µM (inactive)
OVCAR-8
  GI50: 137 µM (inactive)
HOP-92
  GI50: 279 µM (inactive)
COLO 205
  GI50: 164 µM (inactive)
HCT-15
  GI50: > 625 µM
SW-620
  GI50: 610 µM (inactive)
HL-60
  GI50: 239 µM (inactive)
HCC 2998
  GI50: 63.2 µM (inactive)
OVCAR-3
  GI50: > 625 µM (inactive)
SF-539
  GI50: 186 µM (inactive)
NCI-H23
  GI50: > 625 µM (inactive)
SF-268
  GI50: > 625 µM (inactive)
LOX IMVI
  GI50: 143 µM (inactive)

## Cc1cc(O)nc(NN2C(Cl)C(=O)C2c2ccco2)n1 (stereo not drawn)
HOP-62
  GI50: 32.6 µM (inactive)
KM12
  GI50: 44.6 µM (inactive)
U-251
  GI50: 30.5 µM (inactive)
OVCAR-8
  GI50: 46.5 µM (inactive)
HOP-92
  GI50: 25.1 µM (inactive)
COLO 205
  GI50: 78.2 µM (inactive)
HCT-15
  GI50: 31.6 µM
EKVX
  GI50: 87.5 µM (inactive)
SK-MEL-2
  GI50: 27.6 µM (inactive)
SW-620
  GI50: 64.9 µM (inactive)
HL-60
  GI50: 15.3 µM (inactive)
HCC 2998
  GI50: 60 µM (inactive)
OVCAR-3
  GI50: 15.2 µM (inactive)
SF-539
  GI50: 22.6 µM (inactive)
NCI-H23
  GI50: 28 µM (inactive)
OVCAR-5
  GI50: > 100 µM (inactive)
SF-268
  GI50: 29.4 µM (inactive)
ACHN
  GI50: 28.2 µM (inactive)
LOX IMVI
  GI50: 23.3 µM (inactive)

## CC1[C@@]2(O[C@@H]3C=C4C5CCC6Cc7nc8c(nc7C[C@@]6(C)C5C[C@H](O)[C@@]4(C)[C@]13O)CC1CCc3c(cc4c5c3C(O)C[C@H]5[C@@H](C)C3(O4)OC(C)(C)CC3O)[C@]1(C)C8)O[C@@](C)(CO)C[C@@H]2O (stereo partly drawn)
HOP-62
  GI50: 0.102 µM (active)
KM12
  GI50: 1.29 µM (inactive)
SK-OV-3
  GI50: 0.187 µM (active)
U-251
  GI50: 0.0759 µM (active)
OVCAR-8
  GI50: 3.24 µM (inactive)
COLO 205
  GI50: 0.57 µM (active)
HCT-15
  GI50: 0.914 µM
EKVX
  GI50: 0.146 µM (active)
SK-MEL-2
  GI50: 0.436 µM (active)
SW-620
  GI50: 0.49 µM (active)
HL-60
  GI50: 0.191 µM (active)
HCC 2998
  GI50: 1.91 µM (inactive)
OVCAR-3
  GI50: 1.32 µM (inactive)
SF-539
  GI50: 0.173 µM (active)
OVCAR-5
  GI50: 0.618 µM (active)
SF-268
  GI50: 0.191 µM (active)
LOX IMVI
  GI50: 0.23 µM (active)

## O=C(Nc1c(Cl)cc([N+](=O)[O-])cc1Cl)/C(=N\Nc1cccc(Cl)c1)c1c(O)c2ccccc2oc1=O
HOP-62
  GI50: 74 µM (inactive)
KM12
  GI50: > 100 µM (inactive)
SK-OV-3
  GI50: > 100 µM (inactive)
OVCAR-8
  GI50: > 100 µM (inactive)
COLO 205
  GI50: > 100 µM (inactive)
EKVX
  GI50: 26.4 µM (inactive)
SK-MEL-2
  GI50: > 100 µM (inactive)
SW-620
  GI50: > 100 µM (inactive)
HL-60
  GI50: 71.9 µM (inactive)
HCC 2998
  GI50: > 100 µM (inactive)
OVCAR-3
  GI50: > 100 µM (inactive)
SF-539
  GI50: > 100 µM (inactive)
NCI-H23
  GI50: 62.7 µM (inactive)
OVCAR-5
  GI50: 31.3 µM (inactive)
SF-268
  GI50: 69.8 µM (inactive)
ACHN
  GI50: 49.2 µM (inactive)
